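Values below derive from 48-hour exposures of cells grown in 96-well plates, with endpoints linearly interpolated between the two concentrations bracketing the appropriate inhibition level. Here, GI50 denotes the concentration required for 50% inhibition of growth.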 Activity calls are given as the source filed them. Rule as the data show it: active = GI50 up to about 1.1 µM and inactive = higher.
Tests used:
Test in all cases: DTP human tumour cell line panel, 48 h
786-0 = test system: 786-0
A498 = test system: A498
A549 = test system: A549
ACHN = test system: ACHN
BT-549 = test system: BT-549
CAKI-1 = test system: CAKI-1
COLO 205 = test system: COLO 205
DU-145 = test system: DU-145
EKVX = test system: EKVX
HCC 2998 = test system: HCC 2998
HCT-116 = test system: HCT-116
HCT-15 = test system: HCT-15
HOP-62 = test system: HOP-62
HOP-92 = test system: HOP-92
Hs-578T = test system: Hs-578T
IGROV-1 = test system: IGROV-1
K562 = test system: K562
KM12 = test system: KM12
LOX IMVI = test system: LOX IMVI
M14 = test system: M14
MCF7 = test system: MCF7
MDA-MB-231 = test system: MDA-MB-231
MDA-MB-435 = test system: MDA-MB-435
MDA-N = test system: MDA-N
MOLT-4 = test system: MOLT-4
Malme-3M = test system: Malme-3M
NCI-H226 = test system: NCI-H226
NCI-H23 = test system: NCI-H23
NCI-H460 = test system: NCI-H460
NCI-H522 = test system: NCI-H522
NCI/ADR-RES = test system: NCI/ADR-RES
OVCAR-3 = test system: OVCAR-3
OVCAR-4 = test system: OVCAR-4
OVCAR-5 = test system: OVCAR-5
OVCAR-8 = test system: OVCAR-8
PC-3 = test system: PC-3
RPMI-8226 = test system: RPMI-8226
SF-268 = test system: SF-268
SF-295 = test system: SF-295
SF-539 = test system: SF-539
SK-MEL-28 = test system: SK-MEL-28
SK-MEL-2 = test system: SK-MEL-2
SK-MEL-5 = test system: SK-MEL-5
SK-OV-3 = test system: SK-OV-3
SN12C = test system: SN12C
SNB-19 = test system: SNB-19
SNB-75 = test system: SNB-75
SR = test system: SR
SW-620 = test system: SW-620
T47D = test system: T47D
TK-10 = test system: TK-10
U-251 = test system: U-251
UACC-257 = test system: UACC-257
UACC-62 = test system: UACC-62
UO-31 = test system: UO-31
CCRF-CEM = test system: CCRF-CEM
HL-60 = test system: HL-60
HT-29 = test system: HT-29
RXF 393 = test system: RXF 393

Cc1ccc(S(=O)(=O)c2ccsc2NC(=O)c2ccccc2)cc1
GI50 (786-0): 23 µM (inactive)
GI50 (A498): 45.9 µM (inactive)
GI50 (A549): 48.1 µM (inactive)
GI50 (ACHN): > 42.6 µM (inactive)
GI50 (BT-549): > 100 µM (inactive)
GI50 (CAKI-1): 40.7 µM (inactive)
GI50 (COLO 205): > 100 µM (inactive)
GI50 (DU-145): > 100 µM (inactive)
GI50 (EKVX): > 55.6 µM (inactive)
GI50 (HCC 2998): > 100 µM (inactive)
GI50 (HCT-116): > 100 µM (inactive)
GI50 (HCT-15): > 100 µM
GI50 (HOP-62): 17 µM (inactive)
GI50 (HOP-92): 26.7 µM (inactive)
GI50 (Hs-578T): 17.3 µM (inactive)
GI50 (IGROV-1): > 43.3 µM (inactive)
GI50 (K562): 2.17 µM (inactive)
GI50 (KM12): > 100 µM (inactive)
GI50 (LOX IMVI): > 64 µM (inactive)
GI50 (M14): > 100 µM (inactive)
GI50 (MCF7): > 26.7 µM (inactive)
GI50 (MDA-MB-231): 14.8 µM (inactive)
GI50 (MDA-MB-435): 3.11 µM (inactive)
GI50 (MDA-N): 3.39 µM (inactive)
GI50 (MOLT-4): > 100 µM (inactive)
GI50 (Malme-3M): > 100 µM (inactive)
GI50 (NCI-H226): > 60.4 µM (inactive)
GI50 (NCI-H23): > 31.6 µM (inactive)
GI50 (NCI-H460): 41.1 µM (inactive)
GI50 (NCI-H522): > 100 µM (inactive)
GI50 (NCI/ADR-RES): 35.2 µM (inactive)
GI50 (OVCAR-3): > 100 µM (inactive)
GI50 (OVCAR-4): 20.9 µM (inactive)
GI50 (OVCAR-5): > 100 µM (inactive)
GI50 (OVCAR-8): 28.6 µM (inactive)
GI50 (PC-3): > 81.5 µM (inactive)
GI50 (RPMI-8226): > 100 µM (inactive)
GI50 (SF-268): 31.3 µM (inactive)
GI50 (SF-295): 22.1 µM (inactive)
GI50 (SF-539): 15.4 µM (inactive)
GI50 (SK-MEL-28): > 100 µM (inactive)
GI50 (SK-MEL-2): > 57 µM (inactive)
GI50 (SK-MEL-5): 12.7 µM (inactive)
GI50 (SK-OV-3): 46.9 µM (inactive)
GI50 (SN12C): > 100 µM (inactive)
GI50 (SNB-19): > 64.3 µM (inactive)
GI50 (SNB-75): 28.2 µM (inactive)
GI50 (SR): 4.79 µM (inactive)
GI50 (SW-620): > 100 µM (inactive)
GI50 (T47D): > 100 µM (inactive)
GI50 (TK-10): 36.3 µM (inactive)
GI50 (U-251): 49.3 µM (inactive)
GI50 (UACC-257): > 100 µM (inactive)
GI50 (UACC-62): > 100 µM (inactive)
GI50 (UO-31): > 49.3 µM (inactive)

Cc1cn(CC2(CO)CCC2)c(=O)[nH]c1=O
GI50 (786-0): > 100 µM (inactive)
GI50 (A498): > 100 µM (inactive)
GI50 (A549): > 100 µM (inactive)
GI50 (ACHN): > 100 µM (inactive)
GI50 (BT-549): > 100 µM (inactive)
GI50 (CAKI-1): > 100 µM (inactive)
GI50 (CCRF-CEM): > 100 µM (inactive)
GI50 (COLO 205): > 100 µM (inactive)
GI50 (DU-145): > 100 µM (inactive)
GI50 (EKVX): > 100 µM (inactive)
GI50 (HCC 2998): > 100 µM (inactive)
GI50 (HCT-116): > 100 µM (inactive)
GI50 (HCT-15): > 100 µM
GI50 (HL-60): > 100 µM (inactive)
GI50 (HOP-62): > 100 µM (inactive)
GI50 (HT-29): > 100 µM (inactive)
GI50 (Hs-578T): > 100 µM (inactive)
GI50 (IGROV-1): > 100 µM (inactive)
GI50 (K562): > 100 µM (inactive)
GI50 (KM12): > 100 µM (inactive)
GI50 (LOX IMVI): > 100 µM (inactive)
GI50 (MCF7): > 100 µM (inactive)
GI50 (MDA-MB-231): > 100 µM (inactive)
GI50 (MDA-MB-435): > 100 µM (inactive)
GI50 (MDA-N): > 100 µM (inactive)
GI50 (MOLT-4): > 100 µM (inactive)
GI50 (Malme-3M): > 100 µM (inactive)
GI50 (NCI-H226): > 100 µM (inactive)
GI50 (NCI-H23): > 100 µM (inactive)
GI50 (NCI-H460): > 100 µM (inactive)
GI50 (NCI-H522): > 100 µM (inactive)
GI50 (NCI/ADR-RES): > 100 µM (inactive)
GI50 (OVCAR-3): > 100 µM (inactive)
GI50 (OVCAR-4): > 100 µM (inactive)
GI50 (OVCAR-5): > 100 µM (inactive)
GI50 (OVCAR-8): > 100 µM (inactive)
GI50 (PC-3): > 100 µM (inactive)
GI50 (RPMI-8226): > 100 µM (inactive)
GI50 (RXF 393): > 100 µM (inactive)
GI50 (SF-268): > 10 µM (inactive)
GI50 (SF-295): > 100 µM (inactive)
GI50 (SF-539): > 100 µM (inactive)
GI50 (SK-MEL-28): > 100 µM (inactive)
GI50 (SK-MEL-2): > 100 µM (inactive)
GI50 (SK-MEL-5): > 100 µM (inactive)
GI50 (SK-OV-3): > 100 µM (inactive)
GI50 (SN12C): > 100 µM (inactive)
GI50 (SNB-75): > 100 µM (inactive)
GI50 (SR): > 100 µM (inactive)
GI50 (SW-620): > 100 µM (inactive)
GI50 (T47D): > 100 µM (inactive)
GI50 (TK-10): > 100 µM (inactive)
GI50 (U-251): > 100 µM (inactive)
GI50 (UACC-257): > 100 µM (inactive)
GI50 (UACC-62): > 100 µM (inactive)
GI50 (UO-31): > 100 µM (inactive)
